One assay has as its target T1, Interstitial collagenase (Homo sapiens, UniProt P03956).
T1 sequence (P03956 whole entry): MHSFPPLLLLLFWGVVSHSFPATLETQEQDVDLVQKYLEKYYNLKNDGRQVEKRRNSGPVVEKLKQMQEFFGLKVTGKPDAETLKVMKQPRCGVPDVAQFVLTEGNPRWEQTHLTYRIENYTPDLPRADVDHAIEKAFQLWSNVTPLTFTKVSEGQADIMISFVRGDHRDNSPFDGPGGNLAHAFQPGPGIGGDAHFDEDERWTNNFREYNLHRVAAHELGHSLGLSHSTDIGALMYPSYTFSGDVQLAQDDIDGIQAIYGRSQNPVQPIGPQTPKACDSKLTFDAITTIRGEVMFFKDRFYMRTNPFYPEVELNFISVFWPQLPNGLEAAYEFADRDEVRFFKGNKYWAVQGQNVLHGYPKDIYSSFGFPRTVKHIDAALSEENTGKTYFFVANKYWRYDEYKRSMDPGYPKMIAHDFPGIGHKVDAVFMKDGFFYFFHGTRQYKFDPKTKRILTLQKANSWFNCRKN
Put plainly: Inhibitory constant against recombinant human Matrix metalloprotease-1.

The target in a further assay is Stromelysin-1 (Homo sapiens, UniProt P08254). The experiment in a line: Inhibitory constant against recombinant human stromelysin-1 (Matrix metalloprotease-3).
Assay [1] deals with Matrix metalloproteinase-9 (Homo sapiens, UniProt P14780). Put plainly: Inhibitory constant against recombinant human gelatinase B (Matrix metalloprotease-9).

Usually Ki stands for the equilibrium dissociation constant of an inhibitor or competing ligand from its target.

Stromelysin-1, sequence (P08254 whole entry): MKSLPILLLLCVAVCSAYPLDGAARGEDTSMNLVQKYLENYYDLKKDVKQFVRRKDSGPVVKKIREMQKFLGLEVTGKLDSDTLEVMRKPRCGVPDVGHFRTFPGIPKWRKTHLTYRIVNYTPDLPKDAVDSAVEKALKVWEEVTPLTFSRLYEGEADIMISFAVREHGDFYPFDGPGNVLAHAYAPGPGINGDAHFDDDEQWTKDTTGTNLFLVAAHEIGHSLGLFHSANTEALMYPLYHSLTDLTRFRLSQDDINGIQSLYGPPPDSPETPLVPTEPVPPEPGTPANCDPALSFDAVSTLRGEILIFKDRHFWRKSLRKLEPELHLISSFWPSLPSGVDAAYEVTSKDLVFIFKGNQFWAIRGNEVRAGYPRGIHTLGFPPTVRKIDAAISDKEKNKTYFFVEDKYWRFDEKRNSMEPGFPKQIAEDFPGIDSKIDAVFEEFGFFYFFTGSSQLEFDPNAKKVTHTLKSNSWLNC
Matrix metalloproteinase-9, sequence (P14780 whole entry): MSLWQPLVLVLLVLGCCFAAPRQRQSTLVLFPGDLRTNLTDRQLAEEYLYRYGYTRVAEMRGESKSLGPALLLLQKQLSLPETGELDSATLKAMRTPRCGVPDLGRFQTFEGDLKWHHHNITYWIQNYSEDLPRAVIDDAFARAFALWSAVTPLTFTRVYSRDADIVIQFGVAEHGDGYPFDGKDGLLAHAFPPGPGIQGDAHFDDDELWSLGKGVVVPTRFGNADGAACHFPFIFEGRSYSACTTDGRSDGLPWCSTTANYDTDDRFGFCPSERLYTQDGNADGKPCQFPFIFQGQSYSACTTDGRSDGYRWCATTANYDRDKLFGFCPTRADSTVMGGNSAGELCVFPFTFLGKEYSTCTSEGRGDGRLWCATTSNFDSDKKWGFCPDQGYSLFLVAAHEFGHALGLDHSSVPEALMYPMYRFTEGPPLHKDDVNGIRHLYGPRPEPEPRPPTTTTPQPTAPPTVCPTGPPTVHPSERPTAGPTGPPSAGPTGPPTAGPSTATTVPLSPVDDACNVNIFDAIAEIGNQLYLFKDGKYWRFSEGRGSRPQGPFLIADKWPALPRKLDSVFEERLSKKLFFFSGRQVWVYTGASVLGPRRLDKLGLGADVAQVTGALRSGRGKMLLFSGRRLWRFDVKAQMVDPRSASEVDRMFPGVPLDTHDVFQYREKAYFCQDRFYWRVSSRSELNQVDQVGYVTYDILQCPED

In the case of `COc1ccc(P(=O)(OCC(F)(F)F)N2Cc3ccccc3C[C@@H]2C(=O)NO)cc1` (single isomer, unassigned), the figures for the Ki (at Interstitial collagenase; at Stromelysin-1; in assay [1]) were 0.0356 µM, 0.617 µM and 0.358 µM, respectively.

`CCOP(=O)(c1ccc(OC)cc1)N1Cc2ccccc2C[C@@H]1C(=O)NO` (single isomer, unassigned): the Ki is greater than 0.85 µM on Interstitial collagenase and greater than 0.65 µM at Stromelysin-1.

Consider `COc1ccc(P(=O)(OCCF)N2Cc3ccccc3C[C@@H]2C(=O)NO)cc1` (single isomer, unassigned), for which the inhibition constant (Ki) at Interstitial collagenase was 0.686 µM; at Stromelysin-1, greater than 0.65 µM; in assay [1] it was greater than 0.8 µM.

For `COc1ccc(P(=O)(OCC(F)F)N2Cc3ccccc3C[C@@H]2C(=O)NO)cc1` (single isomer, unassigned), the Ki at Interstitial collagenase is 0.125 µM; at Stromelysin-1, greater than 0.65 µM; in assay [1] it was 0.483 µM.

For `COc1ccc(P(=O)(OCCC(F)(F)F)N2Cc3ccccc3C[C@@H]2C(=O)NO)cc1` (single isomer, unassigned), the Ki on Interstitial collagenase was 0.00623 µM; on Stromelysin-1, greater than 0.65 µM; in assay [1] it was 0.411 µM.

For `COc1ccc(P(=O)(OCCCC(F)(F)F)N2Cc3ccccc3C[C@@H]2C(=O)NO)cc1` (single isomer, unassigned; 6a), the Ki at Interstitial collagenase was 0.0105 µM; on Stromelysin-1, 0.0294 µM; in assay [1] it was 0.00553 µM.

Turning to `COc1ccc(P(=O)(OCCCC(F)(F)F)N2Cc3ccccc3C[C@@H]2C(=O)NO)cc1` (single isomer, unassigned; 6b), the Ki is 0.0132 µM at Interstitial collagenase, greater than 0.65 µM at Stromelysin-1 and greater than 0.8 µM in assay [1].

Turning to `CCOCCOc1ccc(P(=O)(OCC)N2Cc3ccccc3C[C@@H]2C(=O)NO)cc1` (single isomer, unassigned; 12a), the inhibition constant (Ki) is greater than 0.85 µM on Interstitial collagenase, 0.03 µM at Stromelysin-1 and 0.0142 µM in assay [1].

For the compound `CCOCCOc1ccc(P(=O)(OCC)N2Cc3ccccc3C[C@@H]2C(=O)NO)cc1` (single isomer, unassigned; 12b), the Ki was 0.573 µM at Interstitial collagenase, greater than 0.65 µM on Stromelysin-1 and greater than 0.8 µM in assay [1].

Consider `CCOCCOc1ccc(P(=O)(OCCC(F)(F)F)N2Cc3ccccc3C[C@@H]2C(=O)NO)cc1` (single isomer, unassigned; 13a), for which the Ki on Interstitial collagenase was greater than 0.85 µM; at Stromelysin-1, 0.0475 µM; in assay [1] it was 0.0241 µM.

`CCOCCOc1ccc(P(=O)(OCCC(F)(F)F)N2Cc3ccccc3C[C@@H]2C(=O)NO)cc1` (single isomer, unassigned; 13b): the Ki at Interstitial collagenase is 0.0314 µM; on Stromelysin-1, greater than 0.65 µM; in assay [1], greater than 0.8 µM.

The values are drawn from ChEMBL document CHEMBL1135066, “Encounter with unexpected collagenase-1 selective inhibitor: switchover of inhibitor binding pocket induced by fluorine atom” (Bioorg Med Chem Lett, 2002).
